Columns and labels:
[1] = test system: primary human monocytes on TNF-alpha-activated HUVECs; assay: Shear flow assay: monocyte adhesion and transmigration on TNFα-activated HUVECs; assay type: cell-based
Source text: A flow assay that allows detailed analysis of individual leukocyte interactions with endothelial cells (ECs), described in Bradfield et al. (Bradfield et al., 2016, PloS One, July 21; 11(7); Bradfield et al., 2007, Blood. October 1; 110(7):2545-55) was used for evaluation of the biological effects of the compounds according to the invention. This method allows the determination of the possible effects of the compounds on three major phases in leukocyte migration: the capture of free non-bound leukocytes by endothelium, migration of leukocytes on the endothelium surface, and transendothelial migration (transmigration) of human leukocytes through the HUVECs layer. Post transmigrational events can also be monitored by tracking individual leukocytes. […] Human umbilical vein endothelial cells (HUVECs) were cultivated in the plastic channel of the flow chamber, and human leukocyte were flowed over them using a calibrated pump, allowing monocyte capture, adhesion and migration to be monitored.
Human umbilical vein endothelial cells (HUVEC) were isolated by collagenase treatment of umbilical veins as previously described (Wall, R. T., et al., Factors influencing endothelial cell proliferation in vitro. J Cell Physiol, 1978. 96(2): p. 203-13) and maintained in M199 containing 20% fetal calf serum (FCS), 15 μg/mL endothelial cell growth supplement (Upstate Biotechnology, Lake Placid, NY), 100 μg/mL heparin, 50 μM hydrocortisone, and 10 μg/mL vitamin C. Cells were cultured up to a maximum of passage 5.
Peripheral blood mononuclear cells (PBMCs) were first isolated from blood of healthy donors followed by monocyte purification using a monocyte isolation kit (Miltenyi Biotec, Bergisch Gladbach, Germany). Purity and activity of monocytes were controlled by flow cytometry by labelling with anti-CD14 and anti-CD62L. Only populations of 90% or more double positive cells were used.
Flow assays were conducted as described in a previous study (Bradfield, P. F., et al., JAM-C regulates unidirectional monocyte transendothelial migration in inflammation. Blood, 2007. 110(7): p. 2545-55). HUVECs were cultured at 1×10^5 cells/slide on Ibidi 6-chamber slides (80606; Ibidi) before treatment with TNFα (500 U/mL) for 6-10 hours. An individual chamber outlet was then attached to a calibrated pump (74 900; Cole Partner, Vernon Hills, IL) and flow was generated by perfusing wash buffer (M199 with 0.15% BSA) or a monocyte suspension (2.5×10^6 cells/mL) over the HUVEC monolayer. The flow rate was representative of shear rates in small venules (0.05 Pa). Observations made using phase-contrast microscopy (Model: Axiovert 100; Objective: 20×/0.3 NA air; Carl Zeiss) were recorded using a high-resolution camera (D70; Nikon, Zurich, Switzerland). Individual images were recorded every 30 seconds with Nikon capture software (v4.2) and compiled into movie sequences using Adobe Photoshop (CS6) and Image J (v1.5d), allowing analysis of individual monocytes over large areas. The tested compounds, e.g. compounds of the general Formula (I), were maintained at the specified concentration in all wash buffers throughout the course of the experiment. The compounds were preincubated separately on both HUVECs and monocytes 15 minutes prior to flow co-culture. HUVEC monolayers were washed for 10 minutes prior to a compound wash-in step to allow for this preincubation period. The monocyte suspension was then perfused over HUVECs for 4 minutes followed by 20 to 60 minutes with wash buffer. Time-lapse recording was started upon monocyte first-contact with the monolayer. Monocyte adhesion data are presented as the total number of monocytes per unit field. Transmigration events are presented as a percentage of total monocytes captured from flow per unit field. All experiments were carried out using quadruplicate fields and are presented as a mean value (±SEM).
A timeline is shown to represent the positioning and timing of an individual monocyte during movie analysis (marked ‘Timeline’). […]

C57BL/6J mice = assay: MOG35-55/CFA-induced experimental autoimmune encephalomyelitis (EAE); assay type: in vivo, mouse; settings: 15 mg/kg SC q3w
Description: Female 7-8 weeks old C57BL/6J mice were immunized with an emulsion of MOG35-55 in CFA according to standard protocol, followed by administration of pertussis toxin (PTX) in PBS. After the onset of EAE (9 days), mice were assigned by rolling enrollment to the groups one at a time as they show the first signs of EAE (paralysis score 0.5-1). Treatment group was administered with Formula 2 at 15 mg/kg dose at q3w regiment by SC injections, mock treated (vehicle) control group was administered with similar volume as a treated group. Body weight of animals was determined prior to the experiment and the administered volume of Formula 2 formulation was adjusted according to the body weight. During the experiment, mice body weight and paralysis clinical score was monitored daily.
Mice from all groups were euthanized with isoflurane 24 hours post last dose administration. Two-way ANOVA statistical analysis was performed.

## COC(=O)c1ccc(COc2c(C=C3C(=O)NC(=O)NC3=O)cccc2C(C)(C)C)cc1 [Formula 2, methyl 4-((2-(tert-butyl)-6-((2,4,6-trioxotetrahydropyrimidin-5(2H)-ylidene)methyl)phenoxy)methyl) benzoate]
[1]; 30 μM
  monocyte transmigration: completely blocked
[1]; 30 μM, flow 0.05 Pa for 30 minutes
  Monocyte adhesion: unaffected
[1]; 30 μM, monocytes on TNF-activated HUVECs under flow 0.05 Pa
  Level of Transmigration Blockage (%): 100%
[1]; Homo sapiens, HUVEC, flow 0.05 Pa, n=3
  IC50: 2400 nM
[1]; Homo sapiens, HUVEC, monocyte transmigration inhibition, read-out: maximal efficacy
  Emax: 48%
[1]; dose response, 100 μM to 3 nM
  concentration below which not active on monocyte transmigration: below 300 nM
[1]; dose response, 3 μM
  monocyte transmigration: partial blocking
[1]; dose response, 30-100 μM
  monocyte transmigration: full blocking
[1]; monocyte transmigration, read at 10, 15, 20 and 25 minutes
  time of the maximal effect: 20 min
C57BL/6J mice; by day 20
  body weight: body weight recovery to that recorded on the onset of the disease
  paralysis score, decrease: from 2 to 1.5
C57BL/6J mice; end of the experiment, average
  body weight difference between treated and non-treated group: approximately 4 g
C57BL/6J mice; starting from day 10
  paralysis score: stable

Reference: US12252472B1, “Barbituric acid derivatives, their preparation and use thereof as leukocyte transmigration inhibitors and for treating inflammatory diseases, autoimmune diseases and cancer” (BAR-ILAN UNIVERSITY, priority 2017, dated 2025)
